This note sets out measurements from patent publication US20240165282A1, “CONFORMATIONAL CONSTRAINED SOMATOSTATIN RECEPTOR 3 PEPTIDE LIGANDS AND THEIR CONJUGATES AND USES THEREOF” (STARGET PHARMA LTD., priority 2021, published 2024).

As a reminder, the Ki is a measure of affinity in units of concentration, obtained from inhibition or displacement. For orientation: IC50 means the concentration that gives 50% inhibition.

Series [1] deals with insulin release. Description: Glucose induced insulin release in rats. The format is in vivo, Wistar rats. The conditions noted are these: S.C. 100-1000 microgram/kg, glucose stimulation. On the procedure: (§1) In vivo determination of the pharmacodynamic properties of SSTR3 analogs was carried out in rats, according to known procedures (Afargan M. et al., 2001, Pless J. et al 1986).
(§2) Adult male Wistar rats weighing 200-220 g, were maintained on a constant light-dark cycle (light from 8:00 to 20:00 h), temperature (21±3° C.), and relative humidity (55±10%). Laboratory chow and tap water were available ad libitum. All animals in the study were fasted overnight, animals were placed in cages with metal mesh to prevent coprophagia with free access to water. On the day of the experiment, rats were anesthetized with Nembutal (IP, 60 mg/kg). Ten minutes after anesthesia, drugs were administrated S.C. at 100-1000 microgram/kg dose. At 10 minutes after drugs administration the stimulation of GH and glucagon release were carried out by i.v. bolus administration of 0.5 g/kg L-arginine, stimulation of insulin release was carried out in separate animal groups that received i.v. bolus of 0.5 g/kg of glucose. Terminal blood samples in EDTA were collected at 5 minutes after stimulation. Blood samples were and centrifuged immediately. Plasma was separated and kept frozen at −20° C. until assayed.
Rat growth hormone (rGH), glucagon and insulin levels were determined by commercial ELISA kits using the Millipore ELISA kits (Billerica, MA, USA). The ELISA kit for rat plasma GH, Millipore, Cat. No. EZRMGH-45K was performed according to the validated detection method of colorimetric sandwich ELISA protocol (Supriya S. et al., 2013). The ELISA kit for rat plasma insulin, Millipore Cat. No. MMEZRMI13K (Merck) was performed according to the validated detection method of fluorescent colorimetric protocol (Xu, P.Z. et al., 2012). The ELISA kit for rat plasma glucagon, Millipore, Cat. No. EZGLU-35 was performed according to the validated detection method of chemiluminescent sandwich ELISA protocol (Soyeon Y. et al., 2021).
(§3) Data analysis of rat plasma GH, glucagon and insulin levels was evaluated by the averaged plasma hormones levels of each group. […] Results are expressed as the mean±SEM.

Series [2] has as its target T1, SSTR3 (Homo sapiens, UniProt P32745). Briefly: β-Arrestin mediated receptor internalization (PathHunter), transfected CHO cells. The format is cell-based. Also on record: host or cells: CHO cells. How it is done:
(§4) The assays were performed utilizing the PathHunter beta-arrestin enzyme fragment complementation (EFC) technology by Eurofins (CA, USA).
(§5) Cell Handling: 1. PathHunter cell lines were expanded from freezer stocks according to standard procedures. 2. Cells were seeded in a total volume of 20 μL into white walled, 384-well microplates and incubated at 37° C. for the appropriate time prior to testing. Agonist Format: 1. For agonist determination, cells were incubated with sample to induce response. 2. Intermediate dilution of sample stocks was performed to generate 5× sample in assay buffer. 3. 5 μL of 5× sample was added to cells and incubated at 37° C. or room temperature for 90 or 180 minutes. Final assay vehicle concentration was 1%. […] Microplates were read following signal generation with a PerkinElmer Envision™ instrument for chemiluminescent signal detection. Data Analysi: Compound activity was analyzed using CBIS data analysis suite (ChemInnovation, CA). […] For agonist mode assays, percentage activity was calculated using the following formula: % Activity=100%×(mean RLU of test sample−mean RLU of vehicle control)/(mean MAX control ligand−mean RLU of vehicle control). […] For antagonist mode assays, percentage inhibition was calculated using the following formula: % Inhibition =100%×(1−(mean RLU of test sample−mean RLU of vehicle control)/(mean RLU of EC80 control−mean RLU of vehicle control)). […]

The target of series [3] is T2, hSSTR-4 (Homo sapiens, UniProt P31391).
T2 construct: host or cells: Chem-1 (Rat ChemiSCREEN) cells, membrane preparation
T2 sequence (P31391 whole entry): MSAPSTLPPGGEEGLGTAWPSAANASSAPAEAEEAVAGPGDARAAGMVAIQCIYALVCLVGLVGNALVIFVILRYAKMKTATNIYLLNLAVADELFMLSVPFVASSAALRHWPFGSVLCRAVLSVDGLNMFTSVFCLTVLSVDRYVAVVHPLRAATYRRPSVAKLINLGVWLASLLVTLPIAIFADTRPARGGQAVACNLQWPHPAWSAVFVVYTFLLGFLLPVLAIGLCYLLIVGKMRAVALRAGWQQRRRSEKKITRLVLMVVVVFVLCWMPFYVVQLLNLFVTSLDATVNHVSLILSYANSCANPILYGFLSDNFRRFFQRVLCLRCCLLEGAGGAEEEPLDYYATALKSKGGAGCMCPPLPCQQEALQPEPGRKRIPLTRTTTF
Briefly: Radioligand binding, displacement of 125I-Tyr11-SRIF-14. Particulars: hSSTR-4. In outline:
(§6)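 Assays ran at 25 °C in 25 mM HEPES pH 7.4 with 5 mM MgCl2, 1 mM CaCl2, 0.1% BSA and 1% DMSO. Filter-bound radioactivity gave IC50 by nonlinear least-squares regression.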

The subject of series [4] is GH release. Description: L-arginine induced GH release in rats. The format is in vivo, Wistar rats. The conditions noted are these: S.C. 100-1000 microgram/kg, L-arginine stimulation. On the procedure: as §1
Inhibition of GH release as a result of peptide administration was measured in Wistar male rats.
as §2
Rat growth hormone (rGH), glucagon and insulin levels were determined by commercial ELISA kits using the Millipore ELISA kits (Billerica, MA, USA). The ELISA kit for rat plasma GH, Millipore, Cat. No. EZRMGH-45K was performed according to the validated detection method of colorimetric sandwich ELISA protocol (Supriya S. et al., 2013). The ELISA kit for rat plasma insulin, Millipore Cat. No. MMEZRMI13K (Merck) was performed according to the validated detection method of fluorescent colorimetric protocol (Xu, P.Z. et al., 2012). […]
as §3

In series [5] the target is T3, SSTR2 (Homo sapiens, UniProt P30874). Description: Radioligand binding, displacement of 125I-Tyr11-SRIF-14. Also on record: host or cells: CHO (Chinese Hamster Ovary) cells, membrane preparation. The conditions noted are these: hSSTR-2. An outline of the steps: as §6
T3 sequence (P30874 whole entry): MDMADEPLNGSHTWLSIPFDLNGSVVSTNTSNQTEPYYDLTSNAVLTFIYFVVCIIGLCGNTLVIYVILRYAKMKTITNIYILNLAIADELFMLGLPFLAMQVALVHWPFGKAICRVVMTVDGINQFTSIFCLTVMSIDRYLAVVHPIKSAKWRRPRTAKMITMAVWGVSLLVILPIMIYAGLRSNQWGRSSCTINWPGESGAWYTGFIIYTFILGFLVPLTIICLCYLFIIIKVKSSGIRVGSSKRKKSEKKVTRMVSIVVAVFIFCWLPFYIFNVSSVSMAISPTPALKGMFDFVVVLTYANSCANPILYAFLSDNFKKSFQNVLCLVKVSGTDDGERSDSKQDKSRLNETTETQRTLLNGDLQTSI
For orientation: Displacement assays read how much labelled ligand stays bound in the presence of the test substance.

Series [6] deals with T1, SSTR3. Described as above. Set-up: host or cells: CHO (Chinese Hamster Ovary) cells, membrane preparation. In outline: as §6
For series [7], the target named is SSTR1 (Homo sapiens, UniProt P30872). The series is described as above. Also on record: host or cells: CHO (Chinese Hamster Ovary) cells, membrane preparation. Particulars: hSSTR-1. In outline:
as §6

Series [8] deals with SSTR5 (Homo sapiens, UniProt P35346). The description is as above. Also on record: host or cells: Chem-1 (Rat ChemiSCREEN) cells, membrane preparation. Particulars: hSSTR-5. In outline: as §6
Sequence of SSTR5 (P35346 whole entry): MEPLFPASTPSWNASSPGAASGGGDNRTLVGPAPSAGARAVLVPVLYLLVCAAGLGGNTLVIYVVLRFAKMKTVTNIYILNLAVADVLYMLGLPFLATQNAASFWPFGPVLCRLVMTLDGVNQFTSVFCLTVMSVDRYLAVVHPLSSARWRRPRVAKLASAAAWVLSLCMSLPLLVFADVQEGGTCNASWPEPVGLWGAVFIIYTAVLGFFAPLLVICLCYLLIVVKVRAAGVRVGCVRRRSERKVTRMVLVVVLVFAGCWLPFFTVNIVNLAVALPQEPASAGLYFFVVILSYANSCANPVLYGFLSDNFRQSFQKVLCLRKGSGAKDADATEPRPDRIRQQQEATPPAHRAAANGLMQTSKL
Series [9] in a line: in vivo. Particulars: iv, total radioactivity. How it is done: (§7) In this example, imaging performance, biodistribution and tumor uptake of SSTR3 selective radioligands in rodents bearing xenografts of transfected SSTR3 cells was determined using the following method: Animal handling was conducted in accordance with the European Council Directive 2010/63/UE. All experimental procedures were approved by the Institutional Ethical Committee and local authorities. For biodistribution studies, female nude nu/nu Balb/c mice or nude nu/nu rats (Charles River) were used. Dynamic PET-CT imaging experiments were performed up to 240 minutes in mice and up to 270 minutes in rats, under isoflurane anesthesia following the intravenous injection of the radiolabeled tracers. All experiments were performed during the light phase of the light—dark cycle. Biodistribution was determined by quantitative analysis of the PET-CT scan and calculated as % percentage of […] of the total injected dose (%ID/g) or by the value of SUV which is the ratio of the image-derived radioactivity concentration Cimg and the whole-body concentration of the injected radioactivity Cinj.

In series [10] the test system is Xenograft of SSTR3 transfected HEK-293 cells. Description: in vivo. The conditions noted are these: rat. On the procedure:
as §7

Series [11] has as its system Desmoplastic Small Round Cell Tumor with SSTR3 expression. The format is in vivo, human. How it is done: In this example, the safety, biodistribution, imaging performance and tumor uptake in patient with sarcoma type DSRCT tumor positive SSTR3 expression was evaluated. Following radiolabeling of the title compound, the eluted solution of the radiolabel tracer was filtered for sterility and injected intravenously in isotonic solution. PET-CT scan was performed at 30- and 120-minutes post injection of the radiolabeled tracer at approximately 600 Mbq. Body temperature, heart rate, and blood pressure were monitored before during and after the PET-CT scan for safety evaluation. The patient was a person, diagnosed for DSRCT 8 years prior. Over the last 8 years, before the current example, the patient was treated with External beam radiation therapy (EBRT), chemotherapy (Irinotecan/temozolomide, melphalan/treosuflan, gemcitabine/docetaxel, pazopanib, topotecan/cyclophosphamide, cabozantinib, densumab), and laminectomy (to resect spine—tumoral foci). A biopsy analysis was performed 3 months before the PET-CT and indicated high mRNA expression of SSTR3.

Series [12] concerns the target T3, SSTR2. Description: β-Arrestin mediated receptor internalization (PathHunter), transfected CHO cells. The conditions noted are these: SSTR2 transfected cells. The format is cell-based. How it is done: as §4, §5
Setting [13] is: Cheng and Prusoff, read-out: Ki.
Setting [14] is: female, nude nu/nu Balb/c, mouse, Kidneys % ID/cm^3.
Where [15] appears, read: female, nude nu/nu Balb/c, mouse, Tumor % ID/cm^3.

*1 amine or outer side, *2 acyl side, *3 side chain or, on linkers, in order; H or OH if unused. Where a SMILES comes first, the peptide text is derived from it. Bridges are numbered along the chain shown (N, C = ends). [ ]: non-standard residue; d: D form. The star is where a group is joined. DOTA = O=C(O)CN1CCN(CC(=O)O)CCN(CC(=O)*)CCN(CC(=O)O)CC1; N(2-mercaptoethyl)Gly = O=C(CN(CCS[*:3])[*:1])[*:2]

T1 sequence (P32745 whole entry, the tested form may be a part): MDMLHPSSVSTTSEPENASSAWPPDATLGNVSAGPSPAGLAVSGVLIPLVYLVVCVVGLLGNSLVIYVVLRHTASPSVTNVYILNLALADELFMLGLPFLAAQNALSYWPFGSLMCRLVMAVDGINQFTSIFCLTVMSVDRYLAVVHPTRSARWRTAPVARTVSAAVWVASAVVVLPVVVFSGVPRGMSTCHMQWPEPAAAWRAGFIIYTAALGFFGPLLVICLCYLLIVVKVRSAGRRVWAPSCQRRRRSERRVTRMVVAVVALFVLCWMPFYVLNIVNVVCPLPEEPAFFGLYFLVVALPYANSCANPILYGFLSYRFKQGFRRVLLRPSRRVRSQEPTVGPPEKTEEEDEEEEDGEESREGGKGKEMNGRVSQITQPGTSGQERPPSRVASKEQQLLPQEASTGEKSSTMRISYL
Sequence of SSTR1 (P30872 whole entry): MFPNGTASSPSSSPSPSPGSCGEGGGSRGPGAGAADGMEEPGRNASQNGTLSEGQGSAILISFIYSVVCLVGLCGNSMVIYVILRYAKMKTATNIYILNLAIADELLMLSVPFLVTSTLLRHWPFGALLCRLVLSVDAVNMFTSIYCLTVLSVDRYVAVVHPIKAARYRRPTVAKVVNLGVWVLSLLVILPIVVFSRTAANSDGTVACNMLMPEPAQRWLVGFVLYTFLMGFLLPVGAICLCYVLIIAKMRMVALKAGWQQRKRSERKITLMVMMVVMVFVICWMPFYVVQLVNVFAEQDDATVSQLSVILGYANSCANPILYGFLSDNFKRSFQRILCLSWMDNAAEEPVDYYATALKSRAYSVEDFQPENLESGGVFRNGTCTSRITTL

For the compound `C[C@@H](O)[C@@H]1NC(=O)[C@H](CCCCN)NC(=O)[C@@H](Cc2c[nH]c3ccccc23)NC(=O)[C@H](Cc2ccccc2)NC(=O)[C@@H](NC(=O)[C@H](N)Cc2ccccc2)CSSC[C@@H](C(=O)N[C@H](CO)[C@@H](C)O)NC1=O` [octreotide, reference compound], the “effect on insulin release” value in series [1] is on record as “exhibits anti-secretagogue effect of pancreatic release of insulin”.

On to `C[C@@H](O)[C@@H]1NC(=O)[C@H](CCCCN)NC(=O)[C@@H](Cc2c[nH]c3ccccc23)NC(=O)[C@H](Cc2ccccc2)NC(=O)[C@@H](NC(=O)[C@H](CCCNC(=N)N)NC(=O)[C@H](N)Cc2ccccc2)CSSCCN(CC(N)=O)C(=O)[C@H](Cc2ccccc2)NC1=O` [SEQ ID NO: 1, H-D-Phe^1-Arg^2-Cys^3-Phe^4-D-Trp^5-Lys^6-Thr^7-Phe^8-NTEG^9-NH^2 (cyclo 3-9)] (H-[dF]RCF[dW]KTF[N(2-mercaptoethyl)Gly]-NH2; disulfide 3-9), for which the “agonistic activity profile at SSTR3 (in words)” value in [2] was “superagonistic activity profile of SSTR3 above the native hormone SRIF-14”. The “effect on insulin release” value in series [1] is recorded as “did not affect insulin release”. For the same compound, the “Hill coefficient (nH)” value in series [3] turned out to be 1.24; in series [5], 1.25; in series [6] (hSSTR-3) it was 1.28; in series [7] it was 0.74; in [8], 1.2. The Ki is > 1000 nM in series [3] (setting [13]); 320 nM in series [5] (setting [13]); 0.15 nM in series [6] (hSSTR-3, Cheng and Prusoff, read-out: Ki); 150 nM in series [7] (setting [13]); 170 nM in series [8] (setting [13]). Also, the IC50 was > 1000 nM in [3] (read-out: IC50); 390 nM in series [5] (read-out: IC50); 0.43 nM in series [6] (hSSTR-3, read-out: IC50); 180 nM in series [7] (read-out: IC50); 310 nM in series [8] (read-out: IC50). Also, the “inhibition of GH release” value was “potent inhibitors of pituitary GH release” in [4] (listed as SEQ ID NO.1) and “potent anti-secretagogue of growth hormone secretion” in series [4] (listed as SEQ ID NO:1). For the same compound, the “affinity and selectivity to SSTR3 (in words)” value in series [6] (binding data) was “high affinity and selectivity to human cloned SSTR3 in the nanomolar range”.

Turning to `C[C@@H](O)[C@@H]1NC(=O)[C@H](CCCCN)NC(=O)[C@@H](Cc2c[nH]c3ccccc23)NC(=O)[C@H](Cc2ccccc2)NC(=O)[C@@H](NC(=O)[C@H](CCCNC(=N)N)NC(=O)[C@@H](Cc2ccccc2)NC(=O)CN2CCN(CC(=O)O)CCN(CC(=O)O)CCN(CC(=O)O)CC2)CSSCCN(CC(N)=O)C(=O)[C@H](Cc2ccccc2)NC1=O` [^68Ga -SEQ ID NO: 4, metal not drawn] ({DOTA}-[dF]RCF[dW]KTF[N(2-mercaptoethyl)Gly]-NH2; disulfide 3-9), in series [9] (setting [14]), the tissue uptake per volume at 2.5 h was 6 %ID/mL and the tissue uptake per volume at 4 h came to 6.6 %ID/mL. For the same compound, in series [9] (setting [15]), the tissue uptake per volume at 2.5 h came to 9.6 %ID/mL and the tissue uptake per volume at 4 h is 12.3 %ID/mL. The tissue uptake per volume at 2.5 h in series [9] (nude nu/nu, rat, Kidneys % ID/cm^3) turned out to be 3.2 %ID/mL. Further, the tissue uptake per volume at 2.5 h in series [9] (nude nu/nu, rat, Tumor % ID/cm^3) is 4.7 %ID/mL. Also, in [10], the “tumor uptake above the kidneys (tumor/kidneys)” value is “approximately 50%”. In [10] (iv), the “Kidneys SUV” value stood at 7.6 and the “Tumor SUV” value is 11.0. For the same compound, in series [11] (human, in vivo), the safety evaluations entry is recorded as “no abnormal toxicity signs” and the “uptake in off-target organs” value is given as “no uptake in off-target organs”. The “elimination of the tracer” value in series [11] (human, in vivo, iv) is given as “rapid elimination of the tracer was observed from the blood to the kidneys”. In addition, the “tumor uptake (radioactive foci)” value in series [11] (patient with DSRCT, FIG. 9) is “several radioactive foci were detected in the lung, neck and pelvic regions”.

Consider SRIF-28, for which, in series [12], the “Efficacy - maximal response” value is reported as 47480 RLU and the Note entry is on record as “Agonist”.
